For the assay, the system named is CD8+ and CD4+ T cells (autologous CD3+ Pan-T cells isolated from human normal PBMCs). The experiment in a line: Exogenous autologous normal donor restimulation assay (15-mer overlapping peptide pools on CD1c+ dendritic cells, TNFα/IFNγ flow cytometry). The settings on record: 15-mer overlapping peptide pool; for Max. Fold Change over background CD4+ TNFαINFγ double positive DP / Max. Fold Change over background CD8+ TNFαINFγ double positive DP / Max. Frequency of CD4+ TNFαINFγ DP / Max. Frequency of CD8+ TNFαINFγ DP: Table 28, additional neoantigens, highest across normal donors; for Maximum Fold Change Over Background CD4+ cells / Maximum Fold Change Over Background CD8+ cells / Maximum Frequency of TNFα/IFNγ Double Positive CD4+ T cells / Maximum Frequency of TNFα/IFNγ Double Positive CD8+ T cells: Table 25; for Maximum Fold Change Over Background CD4+ cells: TNFα+IFNγ+ CD4+ T cells; for Maximum Fold Change Over Background CD4+ cells / Maximum Fold Change Over Background CD8+ cells: highest fold change over negative control across normal donors; for Maximum Fold Change Over Background CD8+ cells: TNFα+IFNγ+ CD8+ T cells; for Maximum Frequency of TNFα/IFNγ Double Positive CD4+ T cells / Maximum Frequency of TNFα/IFNγ Double Positive CD8+ T cells: highest frequency across normal donors. In kind it is cell-based. On the procedure: CD1c+ Dendritic Cells (DC) isolated from human normal PBMCs were thawed using media (IMDM (Gibco) supplemented with glutamine, HEPES, 5% human serum (Sigma), and 1× Pen-Strep). DC cells were resuspended in media supplemented with IL-4 (Peprotech, 80 ng/mL) and GM-CSF (Gibco, 80 ng/mL), plated in 6 well microplates, and rested overnight at 37° C. (5% CO2). The following day, DC cells were counted and plated in a 96 well round bottom microplate at a concentration of 30,000 viable cells per well. Lyophilized peptides (15-mer overlapping peptides) were solubilized in 100% DMSO and pooled by neoantigen to between 5 mg/mL and 20 mg/mL. Neoantigen peptides pools were added to DCs for a final concentration of […] and rested for 2 hours at 37° C. (5% CO2). CEF Peptide Pool “Plus” (Cellular Technologies, Ltd.) was utilized as a positive control and DMSO at the same final concentration as the experimental peptides was utilized as a negative control. After 2 hours, DC cells were irradiated with 50 gray of ionizing radiation. Autologous CD3+ Pan-T cells isolated from human normal PBMCs were thawed using media. Following irradiation, autologous Pan-T cells were added to the irradiated DCs at 300,000 viable cells per well. Human IL-15 (Peprotech) was added to all wells at final concentration of 10 ng/mL.
Plates were incubated at 37° C. (5% CO2) for a total of 12 days. Media was refreshed every 2-3 days with IL-15 (10 ng/mL final concentration) and IL-2 (R&D systems, 10 IU/mL final concentration). On day 11 cells were re-stimulated with identical experimental peptide pools or controls, at same concentration as peptide stimulation on Day 1. Protein Inhibitor Cocktail (eBioscience) was added to every well and plate was incubated overnight at 37° C. (5% CO2).
On day 12, cells were stained for intracellular flow cytometry analysis. The cells were washed with PBS and stained with Live/Dead Fixable Aqua Dead Cell stain (Thermo-Fisher). Following the live/dead stain, cells were blocked using Biotin-Free Fc Receptor Blocker (Accurate Chemical & Scientific Corp). Extracellular cellular flow panel (1 μL/antibody per well in 50 μL) consisted of CD3 PerCP-Cy5.5 (Biolegend), CD4 BV421 (Biolegend), and CD8 APC-Cy7 (Biolegend). After extracellular staining, cells were fixed using Foxp3/fTranscription Factor Staining Buffer Set (eBioscience) and stained for intracellular proteins (1:50 dilution) using TNFα FITC (R&D Systems) and IFNγ BV785 (Biolegend). Cells were washed and resuspended in stain buffer and analyzed using a BD Celesta flow cytometer.
Flow cytometry cell staining analysis was completed using FlowJo v10. Cells were gated on live, singlet, CD3+ cells. The CD8+ and CD4+ T cells were analyzed for TNFα/IFNγ expression and the frequency of double positive TNFα/IFNγ CD8+ and the frequency of double positive TNFα/IFNγ CD4+ T cells were recorded. Responses were assessed to be positive when the frequency of double positive TNFα/IFNγ CD8+ or TNFα/IFNγ CD4+ T cells due to stimulation with an experimental peptide pool was increased greater than or equal to 3-fold over the DMSO only negative control for that donor and at least 0.01%.
Overlapping 15-mer peptides were designed to span each neoantigen incorporated into NeoGAd20 and NeoMVA to assess their ability to activate T cells using the exogenous autologous normal donor restimulation assay described in Example 1 as pools using TNFα and IFNγ production by CD8^+ and CD4^+ T cells as a readout.
Immunogenicity of various additional identified neoantigens was assessed. Overlapping 15-mer peptides were designed to span each neoantigen similarly to what was done in Example 11 to assess their ability to activate T cells using the exogenous autologous normal donor restimulation assay described in Example 1 as pools using TNFα and IFNγ production by CD8^+ and CD4^+ T cells as a readout.
(In general: In flow cytometry, cells or beads pass a laser one at a time.)

Consider “KVLNEIDAVVTVPPSLSTSQIPQGCCIIL (listed as Homo sapiens) [AS20, PFKFB4 alternative splicing]”, for which the “Max. Fold Change over background CD4+ TNFαINFγ double positive DP” value stood at 1.36, the “Max. Fold Change over background CD8+ TNFαINFγ double positive DP” value worked out at 3.81, the “Max. Frequency of CD4+ TNFαINFγ DP” value is on record as 0.05 and the “Max. Frequency of CD8+ TNFαINFγ DP” value was 0.12.
For “KWNKNWTATLGALTIRGHKLLCHLPHLLSSVQQTCRSSSR (listed as Homo sapiens) [AS46, SERINC5 alternative splicing]”, the “Max. Fold Change over background CD4+ TNFαINFγ double positive DP” value worked out at 157.98, the “Max. Fold Change over background CD8+ TNFαINFγ double positive DP” value is 11.6, the “Max. Frequency of CD4+ TNFαINFγ DP” value came to 0.29 and the “Max. Frequency of CD8+ TNFαINFγ DP” value is given as 0.87.
Taken in the same sequence, the figures for “LELELSEGVCFRLR (listed as Homo sapiens) [FUS10, DIP2A->DIP2A-IT1 gene fusion]” were 10.86, 2.42, 0.04 and 0.09.
Take “LQERMELLACGAERGAGGWGGGGGGGGGDRRGGGGSAPALADFAGGRG (listed as Homo sapiens) [FUS24, DMPK->SIX5 gene fusion]”: the “Max. Fold Change over background CD4+ TNFαINFγ double positive DP” value is 4.4, the “Max. Fold Change over background CD8+ TNFαINFγ double positive DP” value worked out at 8.53, the “Max. Frequency of CD4+ TNFαINFγ DP” value stood at 0.05 and the “Max. Frequency of CD8+ TNFαINFγ DP” value was 0.64.
For the substance “LTFLDFIQVTLRVMSGSQMENGSSYFFKPFSWGLGVGLSAWLCVMLT (listed as Homo sapiens) [AS1, ABCC4 alternative splicing]”, the “Max. Fold Change over background CD4+ TNFαINFγ double positive DP” value is on record as 3.57, the “Max. Fold Change over background CD8+ TNFαINFγ double positive DP” value was determined as 8.15, the “Max. Frequency of CD4+ TNFαINFγ DP” value is listed as 0.02 and the “Max. Frequency of CD8+ TNFαINFγ DP” value worked out at 0.11.
As for “LVLGVLSGHSGSRL (listed as Homo sapiens) [AS8, CACNA1D alternative splicing]”, the “Maximum Fold Change Over Background CD4+ cells” value stood at 4.08, the “Maximum Fold Change Over Background CD8+ cells” value is 54.55, the “Maximum Frequency of TNFα/IFNγ Double Positive CD4+ T cells” value was 0.049 and the “Maximum Frequency of TNFα/IFNγ Double Positive CD8+ T cells” value is given as 0.600.
As to “MFLRKEQQVGPHSFSML (listed as Homo sapiens) [AS14, IQCG alternative splicing]”, the “Max. Fold Change over background CD4+ TNFαINFγ double positive DP” value stood at 1.49, the “Max. Fold Change over background CD8+ TNFαINFγ double positive DP” value is listed as 3.81, the “Max. Frequency of CD4+ TNFαINFγ DP” value is listed as 0.06 and the “Max. Frequency of CD8+ TNFαINFγ DP” value was determined as 0.12.
With MS2 (TDIVKQSV; listed as Homo sapiens), the “Max. Fold Change over background CD4+ TNFαINFγ double positive DP” value worked out at 15.12, the “Max. Fold Change over background CD8+ TNFαINFγ double positive DP” value is on record as 36.92, the “Max. Frequency of CD4+ TNFαINFγ DP” value is 0.1 and the “Max. Frequency of CD8+ TNFαINFγ DP” value was 0.48.
Take “MS4 (SYFSLTNIFNFV; listed as Homo sapiens)”: the “Max. Fold Change over background CD4+ TNFαINFγ double positive DP” value was determined as 367.35, the “Max. Fold Change over background CD8+ TNFαINFγ double positive DP” value amounted to 24.13, the “Max. Frequency of CD4+ TNFαINFγ DP” value was 2.43 and the “Max. Frequency of CD8+ TNFαINFγ DP” value was determined as 0.76.
Consider “MS5 (EFSPETCAFRLS; listed as Homo sapiens)”, for which the “Max. Fold Change over background CD4+ TNFαINFγ double positive DP” value is recorded as 126.05, the “Max. Fold Change over background CD8+ TNFαINFγ double positive DP” value was 32.89, the “Max. Frequency of CD4+ TNFαINFγ DP” value was found to be 0.2 and the “Max. Frequency of CD8+ TNFαINFγ DP” value was found to be 1.95.
Consider MS7 (KKDLELIL; listed as Homo sapiens), for which the “Max. Fold Change over background CD4+ TNFαINFγ double positive DP” value was found to be 10.52, the “Max. Fold Change over background CD8+ TNFαINFγ double positive DP” value amounted to 6.67, the “Max. Frequency of CD4+ TNFαINFγ DP” value is given as 0.09 and the “Max. Frequency of CD8+ TNFαINFγ DP” value is 0.12.
For MS9 (SALSGNSWV; listed as Homo sapiens), in that order: 455.63, 1.38, 1.72 and 0.1.
On to MS10 (TVRAILL; listed as Homo sapiens), for which the “Max. Fold Change over background CD4+ TNFαINFγ double positive DP” value was found to be 74.17, the “Max. Fold Change over background CD8+ TNFαINFγ double positive DP” value was found to be 3.42, the “Max. Frequency of CD4+ TNFαINFγ DP” value is on record as 0.28 and the “Max. Frequency of CD8+ TNFαINFγ DP” value is listed as 0.13.
For the substance “MS11 (GSLHFHEVLK; listed as Homo sapiens)”, the “Max. Fold Change over background CD4+ TNFαINFγ double positive DP” value was found to be 3.4, the “Max. Fold Change over background CD8+ TNFαINFγ double positive DP” value is 3.81, the “Max. Frequency of CD4+ TNFαINFγ DP” value was found to be 0.13 and the “Max. Frequency of CD8+ TNFαINFγ DP” value is given as 0.12.
With “NSKMALNSEALSVVSE (listed as Homo sapiens) [FUS5, TMPRSS2->ERG gene fusion]”, the “Maximum Fold Change Over Background CD4+ cells” value was 3.43, the “Maximum Fold Change Over Background CD8+ cells” value is on record as 32.50, the “Maximum Frequency of TNFα/IFNγ Double Positive CD4+ T cells” value is 0.048 and the “Maximum Frequency of TNFα/IFNγ Double Positive CD8+ T cells” value amounted to 0.390.
Consider “P27 (LHPQRETFTPRWSGANYWKLAFPVGAEGTFPAAATQRGVVRPA; listed as Homo sapiens) [Neoantigen P27]”, for which the “Max. Fold Change over background CD4+ TNFαINFγ double positive DP” value was 45.38, the “Max. Fold Change over background CD8+ TNFαINFγ double positive DP” value is listed as 7.87, the “Max. Frequency of CD4+ TNFαINFγ DP” value is 0.05 and the “Max. Frequency of CD8+ TNFαINFγ DP” value turned out to be 0.59.
Regarding “P37 (MAGGVLRRLLCREPDRDGDKGASREETVVPLHIGDPVVLPGIGQCYSALF; listed as Homo sapiens) [Neoantigen P37]”, the “Max. Fold Change over background CD4+ TNFαINFγ double positive DP” value came out at 22.78, the “Max. Fold Change over background CD8+ TNFαINFγ double positive DP” value stood at 2.05, the “Max. Frequency of CD4+ TNFαINFγ DP” value is on record as 0.09 and the “Max. Frequency of CD8+ TNFαINFγ DP” value was found to be 0.13.
Take “P97 (GYLRMQGLMAQRLLLR; listed as Homo sapiens) [Neoantigen P97]”: the “Max. Fold Change over background CD4+ TNFαINFγ double positive DP” value turned out to be 3.14, the “Max. Fold Change over background CD8+ TNFαINFγ double positive DP” value turned out to be 7.47, the “Max. Frequency of CD4+ TNFαINFγ DP” value was 0.12 and the “Max. Frequency of CD8+ TNFαINFγ DP” value was 1.11.
In the case of “PEPRRLSPGEPRGRPRKGWGIWGLCGARVGPKAWR (listed as Homo sapiens) [AS42, SLC39A4 alternative splicing]”, the “Max. Fold Change over background CD4+ TNFαINFγ double positive DP” value worked out at 24.58, the “Max. Fold Change over background CD8+ TNFαINFγ double positive DP” value came out at 4.65, the “Max. Frequency of CD4+ TNFαINFγ DP” value was 0.59 and the “Max. Frequency of CD8+ TNFαINFγ DP” value is recorded as 0.69.
With “PVPTATPGVRSVTSPQGLGLFLKFI (listed as Homo sapiens) [AS9, CACNA1D alternative splicing]”, the “Max. Fold Change over background CD4+ TNFαINFγ double positive DP” value stood at 4.18, the “Max. Fold Change over background CD8+ TNFαINFγ double positive DP” value is given as 3.81, the “Max. Frequency of CD4+ TNFαINFγ DP” value was found to be 0.16 and the “Max. Frequency of CD8+ TNFαINFγ DP” value worked out at 0.12.
Consider “QPDSFAALHSSLNELGE (listed as Homo sapiens) [Neoantigen M86, AR L702H]”, for which the “Maximum Fold Change Over Background CD4+ cells” value is recorded as 6.18, the “Maximum Fold Change Over Background CD8+ cells” value amounted to 4.22, the “Maximum Frequency of TNFα/IFNγ Double Positive CD4+ T cells” value is reported as 0.05 and the “Maximum Frequency of TNFα/IFNγ Double Positive CD8+ T cells” value is on record as 0.08.

These data come from patent US12295997B2, “Prostate neoantigens and their uses” (Janssen Biotech, Inc., priority 2020, dated 2025).
